Laboratory results published in patent US11918582B2 (RAPT Therapeutics, Inc., priority 2021, dated 2024).

Molecular target: T1, human HPK1 (MAP4K1) (Homo sapiens, UniProt Q92918)
T1 construct: Recombinant human HPK1 kinase domain was obtained from ThermoFisher (Cat. #PV6357) and SignalChem (Cat. #M23-11G); purchased ThermoFisher; SignalChem PV6357; M23-11G
T1 sequence (Q92918 17-274 limits assumed): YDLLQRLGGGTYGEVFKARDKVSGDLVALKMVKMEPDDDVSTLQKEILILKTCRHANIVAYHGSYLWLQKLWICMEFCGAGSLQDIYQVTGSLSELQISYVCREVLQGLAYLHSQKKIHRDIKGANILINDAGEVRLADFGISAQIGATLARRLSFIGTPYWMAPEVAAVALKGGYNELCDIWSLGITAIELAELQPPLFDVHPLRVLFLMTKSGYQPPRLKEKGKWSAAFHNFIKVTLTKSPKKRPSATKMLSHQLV
Assay: Biochemical assay for activity against HPK1 (ADP-Glo, MBP substrate)
Details: recombinant human HPK1 kinase domain, 1 nM enzyme, ADP-Glo luminescence
Outline: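 Recombinant human HPK1 kinase domain (1 nM solution) preincubated 15 min at room temperature with compounds in pH 7.5 HEPES buffer with NaCl, TCEP, MgCl2, Tween-20, BSA. MBP substrate with ATP added, reaction run 2 h at room temperature. ADP formation read by ADP-Glo luminescence to give IC50.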

SMILES	IC50 [nM]
COc1cc2c(cc1Nc1ncc3cnn(C4CC5(CCN(C(C)=O)CC5)C4)c3n1)CN(C)CC2 [Example 81, 1-(2-(6-((6-methoxy-2-methyl-1,2,3,4-tetrahydroisoquinolin-7-yl)amino)-1H-pyrazolo[3,4-d]pyrimidin-1-yl)-7-azaspiro[3.5]nonan-7-yl)ethan-1-one]	< 100
COc1cc2c(cc1Nc1ncc3cnn(C4CC5(CCN(S(C)(=O)=O)CC5)C4)c3n1)CN(C)CC2 [Example 82, 6-methoxy-2-methyl-N-[1-(7-methylsulfonyl-7-azaspiro[3.5]nonan-2-yl)pyrazolo[3,4-d]pyrimidin-6-yl]-3,4-dihydro-1H-isoquinolin-7-amine]	< 100
COc1cc2c(cc1Nc1ncc3cnn(CC[C@@H](C)O)c3n1)CN(C)CC2 [Example 83, (2R)-4-[6-[(6-methoxy-2-methyl-3,4-dihydro-1H-isoquinolin-7-yl)amino]pyrazolo[3,4-d]pyrimidin-1-yl]butan-2-ol]	< 100
COc1cc2c(cc1Nc1ncc3cnn(CC[C@H](C)O)c3n1)CN(C)CC2 [Example 84, (S)-4-(6-((6-methoxy-2-methyl-1,2,3,4-tetrahydroisoquinolin-7-yl)amino)-1H-pyrazolo[3,4-d]pyrimidin-1-yl)butan-2-ol]	< 100
COc1cc2c(cc1Nc1ncc3cnn(CCC(C)(C)O)c3n1)CN(C)CC2 [Example 85, 4-[6-[(6-methoxy-2-methyl-3,4-dihydro-1H-isoquinolin-7-yl)amino]pyrazolo[3,4-d]pyrimidin-1-yl]-2-methyl-butan-2-ol]	< 100
COc1cc2c(cc1Nc1ncc3cnn(CCC(N)=O)c3n1)CN(C)CC2 [Example 86, 3-[6-[(6-methoxy-2-methyl-3,4-dihydro-1H-isoquinolin-7-yl)amino]pyrazolo[3,4-d]pyrimidin-1-yl]210ropenamide]	< 100
COc1cc2c(cc1Nc1ncc3cnn(CCNC(C)=O)c3n1)CN(C)CC2 [Example 87, N-[2-[6-[(6-methoxy-2-methyl-3,4-dihydro-1H-isoquinolin-7-yl)amino]pyrazolo[3,4-d]pyrimidin-1-yl]ethyl]acetamide]	< 100
COc1cc2c(cc1Nc1ncc3cnn(CCNS(C)(=O)=O)c3n1)CN(C)CC2 [Example 88, N-[2-[6-[(6-methoxy-2-methyl-3,4-dihydro-1H-isoquinolin-7-yl)amino]pyrazolo[3,4-d]pyrimidin-1-yl]ethyl]methanesulfonamide]	< 100
COC(=O)NCCn1ncc2cnc(Nc3cc4c(cc3OC)CCN(C)C4)nc21 [Example 89, methyl N-[2-[6-[(6-methoxy-2-methyl-3,4-dihydro-1H-isoquinolin-7-yl)amino]pyrazolo[3,4-d]pyrimidin-1-yl]ethyl]carbamate]	100 to 250
COc1cc2c(cc1Nc1ncc3c(C)nn(CC[C@H](C)O)c3n1)CN(C)CC2 [Example 90, (2S)-4-[6-[(6-methoxy-2-methyl-3,4-dihydro-1H-isoquinolin-7-yl)amino]-3-methyl-pyrazolo[3,4-d]pyrimidin-1-yl]butan-2-ol]	< 100
COc1cc2c(cc1Nc1ncc3cnn(CCN(C)C(C)=O)c3n1)CN(C)CC2 [Example 91, N-[2-[6-[(6-methoxy-2-methyl-3,4-dihydro-1H-isoquinolin-7-yl)amino]pyrazolo[3,4-d]pyrimidin-1-yl]ethyl]-N-methyl-acetamide]	100 to 250
COc1cc2c(cc1Nc1ncc3cnn(CCN(C)S(C)(=O)=O)c3n1)CN(C)CC2 [Example 92, N-[2-[6-[(6-methoxy-2-methyl-3,4-dihydro-1H-isoquinolin-7-yl)amino]pyrazolo[3,4-d]pyrimidin-1-yl]ethyl]-N-methyl-methanesulfonamide]	100 to 250
COc1cc2c(cc1Nc1ncc3cnn(C[C@H](C)NC(C)=O)c3n1)CN(C)CC2 [Example 93, N-[(1S)-2-[6-[(6-methoxy-2-methyl-3,4-dihydro-1H-isoquinolin-7-yl)amino]pyrazolo[3,4-d]pyrimidin-1-yl]-1-methyl-ethyl]acetamide]	< 100
COc1cc2c(cc1Nc1ncc3cnn(C[C@H](C)NS(C)(=O)=O)c3n1)CN(C)CC2 [Example 94, N-[(1S)-2-[6-[(6-methoxy-2-methyl-3,4-dihydro-1H-isoquinolin-7-yl]amino]pyrazolo[3,4-d]pyrimidin-1-yl]-1-methyl-ethyl]methanesulfonamide]	100 to 250
COC(=O)N[C@@H](C)Cn1ncc2cnc(Nc3cc4c(cc3OC)CCN(C)C4)nc21 [Example 95, methyl N-[(1S)-2-[6-[(6-methoxy-2-methyl-3,4-dihydro-1H-isoquinolin-7-yl)amino]pyrazolo[3,4-d]pyrimidin-1-yl]-1-methyl-ethyl]carbamate]	< 100
COc1cc2c(cc1Nc1ncc3cnn(CCCO)c3n1)CN(C)CC2 [Example 96, 3-[6-[(6-methoxy-2-methyl-3,4-dihydro-1H-isoquinolin-7-yl)amino]pyrazolo[3,4-d]pyrimidin-1-yl]propan-1-ol]	< 100
COc1cc2c(cc1Nc1ncc3cnn(C[C@@H](C)NC(C)=O)c3n1)CN(C)CC2 [Example 97, N-[(1R)-2-[6-[(6-methoxy-2-methyl-3,4-dihydro-1H-isoquinolin-7-yl)amino]pyrazolo[3,4-d]pyrimidin-1-yl]-1-methyl-ethyl]acetamide]	100 to 250
COC(=O)N[C@H](C)Cn1ncc2cnc(Nc3cc4c(cc3OC)CCN(C)C4)nc21 [Example 98, methyl N-[(1R)-2-[6-[(6-methoxy-2-methyl-3,4-dihydro-1H-isoquinolin-7-yl)amino]pyrazolo[3,4-d]pyrimidin-1-yl]-1-methyl-ethyl]carbamate]	100 to 250
COc1cc2c(cc1Nc1ncc3cnn([C@H](C)CCO)c3n1)CN(C)CC2 [Example 99, (3R)-3-[6-[(6-methoxy-2-methyl-3,4-dihydro-1H-isoquinolin-7-yl)amino]pyrazolo[3,4-d]pyrimidin-1-yl]butan-1-ol]	< 100
COc1cc2c(cc1Nc1ncc3cnn([C@@H](C)CCO)c3n1)CN(C)CC2 [Example 100]	< 100
CC(C)n1ncc2cnc(Nc3ccc4c(c3)CN(C)CC4)nc21 [Example 101, N-(1-isopropyl-1H-pyrazolo[3,4-d]pyrimidin-6-yl)-2-methyl-1,2,3,4-tetrahydroisoquinolin-7-amine]	< 100
CN1CCc2ccc(Nc3ncc4cnn(C5CCCCC5)c4n3)cc2C1 [Example 102, N-(1-cyclohexyl-1H-pyrazolo[3,4-d]pyrimidin-6-yl)-2-methyl-1,2,3,4-tetrahydroisoquinolin-7-amine]	< 100
CN1CCc2ccc(Nc3ncc4cnn(C56CC7CC(CC(C7)C5)C6)c4n3)cc2C1 [Example 103, N-(1-((3s,5s,7s)-adamantan-1-yl)-1H-pyrazolo[3,4-d]pyrimidin-6-yl)-2-methyl-1,2,3,4-tetrahydroisoquinolin-7-amine]	< 100
COc1cc2c(cc1Nc1ncc3cnn(C(C)C)c3n1)CN(C)CC2 [Example 104, N-(1-isopropylpyrazolo[3,4-d]pyrimidin-6-yl)-6-methoxy-2-methyl-3,4-dihydro-1H-isoquinolin-7-amine]	< 100
COc1cc2c(cc1Nc1ncc3cnn(C4CCN(S(C)(=O)=O)CC4)c3n1)CN(C)CC2 [Example 105, 6-methoxy-2-methyl-N-(1-(1-(methylsulfonyl)piperidin-4-yl)-1H-pyrazolo[3,4-d]pyrimidin-6-yl)-1,2,3,4-tetrahydroisoquinolin-7-amine]	< 100
